Drawing on PubChem BioAssay AID504672 (Sanford-Burnham Center for Chemical Genomics, 2011), this text covers IC50 for 106 molecules.

Active and inactive are the calls of the source. Cut-off read from the data, not from the text of the source: active = IC50 below about 71 µM; inactive = the rest.

The experiment relates to S. cerevisiae tim10 strain, luminescence counterscreen. Kind of experiment: signal inhibition in TIM10 yeast counter-screen, dose response, counter-screen for tim23-1 inhibitor project, luminescence, S. cerevisiae, uHTS hits (AID 504672;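 note: yeast grew roughly 22 hours at 25 °C before the luminescence read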). (The purpose of a counterscreen is to sort out artefacts and off-target activity.)
The term IC50 denotes the point on the concentration scale where inhibition reaches its midpoint. Regarding `CN1C(=O)C(=Cc2ccccc2OS(=O)(=O)c2ccccc2)C(=O)N(C)C1=O`, the half-inhibitory concentration (IC50) was 5.92 µM.
Then `COc1ccc(NC(=O)C#Cc2ccccc2)cc1`, with 6.8 µM.
Turning to `O=C(N/N=C/c1cc(Br)cc(Br)c1O)c1cccc(N2CCCC2=O)c1`, the IC50 was 4.11 µM.
With `Cc1ccc(-c2nnc(N3CCC(C)CC3)c3ccccc23)cc1` the figure was 11.9 µM; with `COc1ccc(-c2ccc(NC(=O)c3ccco3)cc2)nn1`, 10.5 µM.
Then `COc1ccc(C(=O)Nc2nc3ccccc3s2)c(OC)c1`, with 7.13 µM; and `O=C(Nc1ccc2nc(-c3ccc(Br)o3)[nH]c2c1)c1cccs1`, with 51 µM; and `COc1ccc(OC)c(-c2csc(NC(=O)Cc3ccc(F)cc3)n2)c1`, with 27.7 µM.
Regarding `CSC1=N/C(=C\c2ccc(C)cc2)C(=O)S1`, the IC50 is 23.8 µM.
With `Cc1occc1C(=O)N/N=C/C(Br)=C/c1ccccc1` the figure was 11.5 µM; with `CCOC(=O)c1c(-c2ccccc2)oc2ccc(O)cc12`, 10.2 µM.
`CCn1c(N2CCN(S(=O)(=O)c3ccc(OC)cc3)CC2)nc2ccccc21`: the IC50 is 58 µM.
In the case of `O=C(Nc1ccc(Oc2cccc3ccccc23)cc1)c1ccco1`, the IC50 is 8.83 µM.
For the molecule `O=C(Nc1ccc(Nc2ccccc2)cc1)c1ccc(Cl)c([N+](=O)[O-])c1`, the IC50 is 10.8 µM.
Then `Cc1nc2nc(-c3cccs3)[nH]c2cc1Br`, with 14.9 µM.
Then `O=C(/C(=C/O)N=Nc1ccccc1)c1ccco1`, with 11 µM; and `CCOC(=O)c1ccc(NC(=O)CSc2nc(=O)n3cccc(C)c3n2)cc1`, with 53.6 µM; and `C/C(=N\Nc1ccc([N+](=O)[O-])cc1)c1ccc(O)cc1`, with 2.32 µM.
Consider `COc1cc(C(=O)N/N=C/c2coc3ccc(Cl)cc3c2=O)ccc1O`, for which the IC50 was 6.59 µM.
Then `CC(C)n1ncc2c(C(=O)NCC(=O)Nc3ccccc3Br)cc(C3CC3)nc21`, with 27.8 µM; and `CCN(CC)S(=O)(=O)c1ccc(C(=O)OCn2nnc3ccccc3c2=O)cc1`, with > 100 µM (inactive); and `Nc1cc([N+](=O)[O-])cc2oc(-c3ccccc3)cc12`, with 23.9 µM.
Then `Cc1ccccc1OCCCSc1nc2ccccc2[nH]1`, with 6.45 µM; and `O=C(Nc1ccc2nc(-c3ccc(Br)o3)[nH]c2c1)c1ccco1`, with 6.75 µM; and `O=C(CSc1cccc[n+]1[O-])CSc1cccc[n+]1[O-]`, with 6.94 µM.
Then `NNC(=O)c1nc(-c2ccccc2)cc(-c2ccccc2)n1`, with 12.5 µM; and `O=C(Nc1ccc2c(c1)OCCO2)c1cccc(Cl)c1`, with 21.5 µM; and `COc1ccc(N2CCC(CNC(=S)Nc3ccc(C)cc3C)C2)cc1` (stereo unspecified), with 18.1 µM.
Regarding `CCc1cccc2c(C(=O)CCl)c[nH]c12`, the IC50 was 25.1 µM.
In the case of `O=C(Nc1cc(-c2ccccc2)[nH]n1)c1ccccc1`, the IC50 is 43.3 µM.
Then `CN(C)/C=C1/C=C(c2ccccc2)OC1=O`, with 36.8 µM; and `O=C(Nc1ccc(F)c(Cl)c1)c1ccccc1`, with 5.55 µM.
Take `Cc1nc2scc(C)n2c(=O)c1S(=O)(=O)Nc1ccc(OC(F)(F)F)cc1`: the IC50 was 49.3 µM.
As for `c1ccc2[nH]c(-c3ccc4c(c3)OCO4)nc2c1`, the IC50 is 12.4 µM.
Then `O=C(N/N=C/c1ccco1)c1cc2ccccc2o1`, with 22.2 µM; and `O=C(N/N=C/C(Br)=C/c1ccccc1)c1ccccc1F`, with 15.5 µM; and `Cc1ccccc1C(=O)Oc1cccc2c(O)cccc12`, with 13.8 µM.
Take `O=C(N/N=C/c1ccc([N+](=O)[O-])s1)c1ccncc1`: the concentration for half-maximal inhibition (IC50) was 12.7 µM.
Turning to `Cc1cc(C)nc(SCC(=O)c2cc3ccccc3oc2=O)n1`, the IC50 is 32.1 µM.
In the case of `C=CCn1c(SCc2cc(=O)n3ccsc3n2)nc2cc(Cl)ccc2c1=O`, the IC50 was 9.66 µM.
With `O=C(Nc1nsc(-c2ccccc2)n1)c1cccs1` the figure was 6.65 µM; with `CCOC(=O)c1cccc(OC(=O)CCNC(=O)c2ccc(Cl)cc2)c1`, 26.9 µM; with `CSc1nnc(C)c(/C=C/NOCc2ccc(Cl)cc2)n1`, 5.56 µM.
Then `CCOc1ccc(N=C(C)C2=C(O)c3ccccc3C2=O)cc1`, with 26.4 µM.
As to `O=C(Nc1ccc(-c2cn3ccccc3n2)cc1)c1ccco1`, the IC50 was 17.5 µM.
Regarding `Fc1ccccc1-c1cc2cc3c(cc2cn1)OCO3`, the IC50 is 25 µM.
Then `O=C1NN=C(c2ccc(Br)cc2)CC1c1ccc(Cl)cc1` (stereo unspecified), with 23.2 µM; and `O=C(NCCCc1ccccc1)c1c(O)nc2sccn2c1=O`, with 4.09 µM.
Then `COc1cc(/C=C/[N+](=O)[O-])ccc1OC(=O)c1cc2ccccc2oc1=O`, with 3.42 µM.
Then `COc1cc(OC)cc(C(=O)Nc2ccc(Nc3ccccc3)cc2)c1`, with 27.3 µM.
As for `CC1CCN(c2ccc(-c3cccs3)nn2)CC1`, the IC50 was 8.39 µM.
As to `N#Cc1c(-c2ccccc2)cc(-c2ccc(O)cc2)nc1N`, the IC50 was 9.91 µM.
For `O=C1Nc2ccccc2/C1=C/c1ccccc1Cl`, the IC50 was 8.06 µM.
Consider `O=C(N/N=C/c1coc2ccc(Cl)cc2c1=O)c1ccncc1`, for which the half-inhibitory concentration (IC50) was 87.1 µM.
With `C[C@@]12C(=O)Nc3ccc(Br)cc3C(=O)N1[C@H]1c3ccccc3OC[C@@H]1[C@@H]2c1ccccc1` the figure was 3.81 µM; with `COc1ccc(S(=O)(=O)CC(=O)c2cc3cccc(C)c3oc2=O)cc1`, 15.4 µM; with `CCOC(=O)c1c(C)oc2c(F)c(F)c(F)c(F)c2c1=O`, 26.8 µM.
For the molecule `COc1ccc(C(=O)COC(=O)c2cncc(Br)c2)cc1`, the IC50 was 15.5 µM.
With `CC(C)(C)c1ccc(OCC(=O)NCc2ccco2)c(Br)c1` the figure was 12.2 µM; with `CCN(CC)c1ccc(/C=N/NC(=O)c2ccc3c(c2)OCCO3)cc1`, 11.5 µM.
Then `Cc1ccc(-c2nc(CNC(=O)c3cc(C)on3)cs2)cc1`, with 19.8 µM; and `Cc1[nH][nH]c(=O)c1C(c1ccc(-c2ccc(F)cc2)o1)c1c(C)[nH][nH]c1=O`, with 16.3 µM; and `C(=C\c1ccccc1)/C=N/Nc1nc2ccccc2[nH]1`, with 38.7 µM.
Then `C=C1CCc2c([nH]c3ccc(OCC(C)C)cc23)C1=O`, with 24.3 µM.
For `CCOC(=O)c1c(C)oc2c1c(C(c1cccnc1)N1CCCCC1)c(O)c1ccccc12` (stereo unspecified), the IC50 was 36.1 µM.
Take `CCOC(=O)c1cnc(-n2nc(C)cc2C)nc1NCCc1ccccc1`: the half-inhibitory concentration (IC50) is 8.35 µM.
Take `O=C(Nc1ccccc1)C1C(c2ccccc2)C1(Cl)Cl` (stereo unspecified): the IC50 was 20.6 µM.
Consider `CCOC(=O)c1cccnc1SCc1cc(=O)n2ccccc2n1`, for which the IC50 is > 100 µM (inactive).
With `COc1ccc(C(C[N+](=O)[O-])c2c(-c3ccccc3)cc3ccccn23)cc1` (stereo unspecified) the figure was 9.28 µM; with `Cc1ccc(Nc2nc(Cl)c(C=O)s2)cc1Cl`, 3.45 µM.
Consider `Cc1cccc(C(=O)Oc2cccc3c(O)cccc23)c1`, for which the IC50 was 8.12 µM.
Turning to `CCCN(C(=O)c1ccc([N+](=O)[O-])c(C)c1)c1c(N)n(Cc2ccccc2)c(=O)[nH]c1=O`, the IC50 was > 100 µM (inactive).
Then `CN1CCc2nc3sc(C(=O)C45CC6CC(CC(C6)C4)C5)c(N)c3cc2C1`, with 86.3 µM.
In the case of `COc1cccc(Nc2nc(-c3ccccc3)nc3ccccc23)c1`, the IC50 was 7.48 µM.
Then `Cc1ccc2occ(C(=O)c3ccco3)c(=O)c2c1`, with 9.21 µM.
With `N=C1/C(=C\c2coc3ccccc3c2=O)C(=O)N=C2SC=CN12`, the half-inhibitory concentration (IC50) was 7.35 µM.
`c1ccc(-c2nc(NCc3cccs3)c3ccccc3n2)cc1`: the IC50 was 14.3 µM.
Then `O=C(N/N=C/C(Br)=C/c1ccccc1)c1cccs1`, with 8.5 µM.
For `O=C(Nc1ccc2oc(-c3ccccc3)nc2c1)c1cccs1`, the IC50 was < 0.2 µM.
In the case of `Cc1cccc(OCCN2C(=O)C(=O)c3cc(C)ccc32)c1`, the 50% inhibitory concentration (IC50) is 11.6 µM.
Turning to `N=c1c2c(-c3ccccc3)c(-c3ccccc3)n(Cc3ccco3)c2ncn1Cc1ccccc1`, the IC50 is 13.6 µM.
With `N#C/C(=C\c1ccc(OCc2ccccc2)cc1)C(N)=O` the figure was 27.9 µM; with `O=C1OC(c2ccccc2)=N/C1=C\C=C\c1ccco1`, > 100 µM (inactive); with `O=C(NCc1ccc2c(c1)OCO2)c1c(O)nc2sccn2c1=O`, 1.63 µM.
Then `O=C(Nc1ccccc1N(C(=O)c1ccco1)S(=O)(=O)c1cccs1)c1ccco1`, with 19.4 µM; and `CCCCn1c(N)c(N(CCC(C)C)C(=O)c2ccc3c(c2)OCO3)c(=O)[nH]c1=O`, with > 100 µM (inactive); and `Cc1csc2nc(O)c(C(=O)NCCC3=CCCCC3)c(=O)n12`, with 3.43 µM.
Regarding `Cc1ccc(Nc2cc(C)c3ccc(O)cc3n2)cc1C`, the IC50 is 27.2 µM.
With `CCCc1nc2c(c(=O)c3ccccc3n2C)c(=O)n1C1CCCCCC1` the figure was 23.2 µM; with `COc1cccc(NC(=O)c2ccccc2)c1`, 3.42 µM; with `O=C(CSc1ccccc1)N/N=C/c1ccccc1O`, 10.9 µM.
With `COCCn1c(C)cc(C(=O)COC(=O)c2ccc([N+](=O)[O-])o2)c1C` the figure was 8.28 µM; with `CC(=O)Nc1cccc(-c2cc(-c3c(Cl)cccc3Cl)no2)c1`, 8.63 µM; with `Cc1nn(CC(=O)Nc2nc3ccccc3s2)c(C)c1[N+](=O)[O-]`, 18.4 µM.
Then `Cc1ccc2oc(C(Cl)(Cl)Cl)cc(=O)c2c1`, with 8.7 µM; and `Cc1ccn(-c2ccc(NC(=O)c3cccs3)cc2)n1`, with 5.12 µM; and `Cc1ccc(Nc2nc(-c3cccnc3)nc3ccccc23)cc1`, with 65.8 µM.
Turning to `N#C/C(=C\c1ccc(Cl)cc1)C(=O)NC1CC1`, the concentration for half-maximal inhibition (IC50) was 9.67 µM.
With `O=C1NC(=S)SC1=C1CCCCCC1` the figure was 14.1 µM; with `CC[C@@]1(c2ccccc2OC)ON(c2ccccc2C(F)(F)F)C1=O`, 4.27 µM; with `CC(C)Oc1cc(O)c2c(=O)c(-c3ccc(O)cc3)coc2c1`, 10.1 µM.
Then `O=C(c1cccnc1)C1Cc2ccccc2C1=O` (stereo unspecified), with 27.8 µM; and `CCOC(=O)NNc1ccc2nonc2c1[N+](=O)[O-]`, with 10.3 µM; and `Nc1ccc(/C=C/C(=O)c2cccs2)cc1`, with 3.17 µM.
As to `O=c1c2ccccc2nc(-c2ccc([N+](=O)[O-])cc2)n1O`, the IC50 was 4.86 µM.
Consider `O=C(CSc1cccs1)Nc1ccc2ccccc2c1`, for which the IC50 is 24.4 µM.
